# Legend:
# Type in all cases: cell-based, human
# [1] = test system: breast and colon cancer cell lines; experiment: cell cycle progression of breast and colon cancer cell lines; details: vs untreated control cells
# Protocol: (§1) DNA histograms were generated on FACS II by using the DNA intercalating dye propidium iodide as described by Braylan et al. (Cytometry 2: 337-343, 1982). The percentage of cells in each cycle phase was calculated by using a PDP-11/34 computer and software as described by Neckers et al. (Mol. Cell. Biol. 6: 4244-4250, 1986).
# A determination was made whether the reduced cell proliferation observed in the cancer cell lines after treatment with the compounds of the present invention is due to a specific block in one phase of the cell cycle.
# [2] = test system: R^I cAMP receptor protein (Molt-4); experiment: R^I cAMP receptor protein in Molt-4 leukemic cells; details: growth-arrested by 8-Cl-adenosine (5 micromol/L)
# Description: (§2) M marker proteins of known molecular weight. […] The resulting supernatants were used as cell lysates. […] ND=nondetectable.
# [3] = test system: c-myc protein; experiment: c-myc protein level, Western blotting (FIG. 9B); details: growth-arrested by 8-Cl-adenosine (5 micromol/L)
# Protocol: The cells were grown in suspension culture in RPMI 1640 medium supplemented with 10% fetal bovine serum, penicillin (50 U/ml), streptomycin ([…]), 10 mmol/L HEPES buffer, and extra glutamine. […] Surface antigen analysis of HL-60 cells was performed by flow cytometry using a panel of monoclonal antibodies reactive with either myeloid cells or monocytic cells. Terminal deoxynucleotidyl transferase (TdT) was assayed by an immunoperoxidase method using a TdT fluorescence kit. Western blotting of c-myc protein was performed using c-myc antibody 15206D11 (Scripps Clinic and Research Foundation, LaJolla, Calif.).
# as §2
# [4] = test system: LS-174T colon cancer cells; experiment: cell cycle analysis, LS-174T; details: 8-Cl-adenosine 5 μM, 3 days, two separate experiments
# Protocol: as §1
# Breast (MCF-7, MDA-MB-231) and colon (LS-174T) cancer cells in
# log phase (untreated control) and 3 days after treatment with
# (5 μM) were analyzed for DNA content by flow cytometric analysis
# [5] = test system: p21 ras protein (MCF-7 cells); experiment: Western blotting of p21 ras protein in MCF-7 cells; details: 5 microM
# Protocol: (§3) Western blotting of p21 protein was performed as described below. […] V is cell lysate from Ha-MuSV-transformed NIH3T3 clone 13-3B-4. M, marker proteins of known molecular weight.
# Cellular proteins present in cell extracts were separated by 12% SDS-PAGE and transferred to nitrocellulose sheets in transfer buffer (25 mM Tris, 192 mM glycine, 20% methanol, pH 7.4). Nitrocellulose sheets were washed and first incubated with 3% bovine serum albumin in NTE-NP40 (50 mM Tris-HCl, pH 7.5, 150 mM NaCl, 2 mM EDTA, 0.1% Nonidet P-40) for three hours at 37° C. and then sequentially incubated with medium containing p21 monoclonal antiserum Y13-259 directed against the Ha-MuSV-encoded p21 for sixteen hours at 4° C., rabbit anti-rat IgG for 2.5 hours in an ice-water bath, and 5×10^5 cpm/ml ^125 I-protein A for one hour in an ice-water bath. The nitrocellulose sheets were air-dried and exposed to Kodak XAR film for 12-36 hours at -20° C. Comparison of the resulting autoradiograms with others in which normal rat serum was substituted for p21 monoclonal antibody permitted identification of p21. To provide a reference p21, cell lysates were prepared from NIH 3T3 clone 13-3B-4 that had been transfected with Ha-MuSV DNA.
# The levels of p21 protein are expressed relative to the p21 level in the untreated control cells, which is set equal to 1.0 O.D.
# [6] = test system: MCF-7 cells; experiment: growth of MCF-7 cells; details: 5 microM
# Protocol: as §3
# (§4) All breast cancer cell lines were grown in IMEM supplemented with 10% fetal bovine serum, 20 mM HEPES, penicillin-streptomycin, and extra glutamine. Colon carcinoma cell lines were grown in EMEM supplemented with 10% FBS, EMEM, NEAA, HEPES 20 mM, extra glutamine, and penicillin-streptomycin. The cells were grown at 37° C. in humidified incubators in an atmosphere of 5% CO2.
# For cell growth experiments, 2-3×10^5 cells/60 mm dish were seeded, and 24 hours later (Day 0), the medium was removed, and fresh medium and the additives were added then and every 48 hours thereafter The compounds of the present invention were added using 100× concentrated stock solutions. At desired times, cell counts in duplicate were performed on a Coulter counter after harvesting the cells with gentle trypsinization.
# [7] = test system: LS-174T colon cancer line; experiment: growth inhibition and release from inhibition, LS-174T (FIG. 3)
# Protocol: 1×10^5 cells/60 mm dish were seeded, and 24 hours later (Day 0), the medium was removed and fresh medium and additives were added then and every 48 hours thereafter. […] The triplicate cell count for each experimental point never varied by more than 10%.
# as §4
structure (smiles),measurement,setting,value
"Nc1ncnc2c1nc(Cl)n2[C@@H]1O[C@H](CO)[C@@H](O)[C@H]1O [8-Cl-adenosine, reference compound]","fractions of cells in G1, S and G2/M phases, in words",[1],appreciable increase of the cell population in Gl phase with a marked reduction in S-phase
same,decrease in R^I receptor level,[2],not observed
same,decrease in c-myc protein level,[3],not observed
same,% Cell population in G1,[4],"72,68%"
same,% Cell population in G2 M,[4],"20,18%"
same,% Cell population in S,[4],"8,14%"
same,activity at 5 µM,"[4]; Homo sapiens, LS174T, 72 h, read-out: % Growth",30.3%
same,"p21 level, in words",[5],did not appreciably affect the p21 level
same,"growth inhibition, in words",[6],strong growth inhibition
same,mechanism of growth inhibition / cell viability,[7],cell killing
same,cell growth during treatment,[7]; 8-Cl-cAMP 10 microM or 8-Cl-adenosine 5 microM,marked reduction in cell growth
same,growth after cessation of treatment,[7]; after removal of additives,remained growth-inhibited and did not resume their growth up to two weeks

# Reference: patent publication US5902794A (priority 1997, dated 1999)
